Data on 31 compounds can be found in US9902725B2, “Heterocyclic derivatives as RORgamma modulators” (GENFIT, priority 2014, dated 2018).

SMILES strings stand for the structures. pIC50: −log10 of the molar value. A value given as a limit tells only on which side of the number the result lay.

The target in this test is T1, RORγt ligand-binding domain (RORγt-LBD) (Homo sapiens, UniProt P51449).
T1 construct: 20 nM recombinantly expressed RORγ-LBD fused to GST
T1 sequence (P51449 269-508 limits assumed): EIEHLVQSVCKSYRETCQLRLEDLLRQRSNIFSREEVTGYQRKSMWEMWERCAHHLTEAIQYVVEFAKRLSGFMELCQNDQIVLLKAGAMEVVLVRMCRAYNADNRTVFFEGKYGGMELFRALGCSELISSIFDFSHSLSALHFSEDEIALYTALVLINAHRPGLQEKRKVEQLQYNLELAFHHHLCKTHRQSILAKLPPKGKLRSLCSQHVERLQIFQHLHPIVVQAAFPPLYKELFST
Nature of the test: Time-resolved FRET (TR-FRET) RORγt coactivator assay. It counts as biochemical. Particulars: GST-RORγ-LBD, biotinylated RIP140 peptide, coactivator displacement. On the technique in general: In TR-FRET formats the signal depends on donor and acceptor labels being close together.
In turn, `COc1cc(C)ccc1C(NC(=O)Cc1ccc2[nH]cc(CCC(=O)O)c2c1)c1ccccc1` (stereo not shown) [compound 99, 3-[5-({[(2-methoxy-4-methylphenyl)(phenyl)methyl]carbamoyl}methyl)-1H-indol-3-yl]propanoic acid] gave a negative-log IC50 (pIC50) of more than 6.00.

In turn, `Cc1ccc(C(NC(=O)Cc2ccc3[nH]cc(CCC(=O)O)c3c2)c2ccc(C)s2)c(C)c1` (stereo not shown) [compound 101, 3-[5-({[(2,4-dimethylphenyl)(5-methylthiophen-2-yl)methyl]carbamoyl}methyl)-1H-indol-3-yl]propanoic acid] had a negative-log IC50 (pIC50) of more than 6.00.

As to `Cc1ccc(C(NC(=O)Cc2ccc3[nH]cc(CCC(=O)O)c3c2)c2ccccc2)c(N2CCN(C)CC2)c1` (stereo not shown) [compound 103, 3-{5-[({[4-methyl-2-(4-methylpiperazin-1-yl)phenyl](phenyl)methyl}carbamoyl)methyl]-1H-indol-3-yl}propanoic acid], the negative-log IC50 (pIC50) is 5.00 to 6.00.

In the case of `O=C(O)CCc1c[nH]c2ccc(CC(=O)NC(c3ccccc3)c3ccccc3-n3cccc3)cc12` (stereo not shown) [compound 107, 3-{5-[({phenyl[2-(1H-pyrrol-1-yl)phenyl]methyl}carbamoyl)methyl]-1H-indol-3-yl}propanoic acid], the negative-log IC50 (pIC50) was more than 6.00.

In the case of `CC(C)NC(=O)CCc1c[nH]c2ccc(CC(=O)NC(c3ccccc3)c3ccccc3N3CCCCC3)cc12` (stereo not shown) [compound 118, 3-{5-[({phenyl[2-(piperidin-1-yl)phenyl]methyl}carbamoyl)methyl]-1H-indol-3-yl}-N-(propan-2-yl)propanamide], the negative-log IC50 (pIC50) is more than 6.00.

`CN(C)Cc1ccccc1C(NC(=O)Cc1ccc2[nH]cc(CCC(=O)OC(C)(C)C)c2c1)c1ccccc1` (stereo not shown) [compound 121, tert-butyl 3-(5-{[({2-[(dimethylamino)methyl]phenyl}(phenyl)methyl)carbamoyl]methyl}-1H-indol-3-yl)propanoate] had a negative-log IC50 (pIC50) of 5.00 to 6.00.

With `O=C(O)CCc1c[nH]c2ccc(CC(=O)NC(c3ccccc3)c3ccccc3N3CCCC(O)C3)cc12` (stereo not shown) [compound 124, 3-{5-[({[2-(3-hydroxypiperidin-1-yl)phenyl](phenyl)methyl}carbamoyl)methyl]-1H-indol-3-yl}propanoic acid], the pIC50 is 5.00 to 6.00.

Compound `O=C(O)CCc1c[nH]c2ccc(CC(=O)NC(c3ccccc3)c3ccccc3N3CC=CCC3)cc12` (stereo not shown) [compound 128, 3-{5-[({phenyl[2-(1,2,3,6-tetrahydropyridin-1-yl)phenyl]methyl}carbamoyl)methyl]-1H-indol-3-yl}propanoic acid] had a pIC50 of more than 6.00.

In turn, `O=C(O)CCc1c[nH]c2ccc(CC(=O)NC3(c4ccccc4N4CCCC4)CCCC3)cc12` [compound 130, 3-{5-[({1-[2-(pyrrolidin-1-yl)phenyl]cyclopentyl}carbamoyl)methyl]-1H-indol-3-yl}propanoic acid] gave a negative logarithm of the IC50 (pIC50) of more than 6.00.

`Cc1ccc(C(NC(=O)Cc2ccc3[nH]cc(CCC(=O)O)c3c2)c2ncccn2)c(N2CCCCC2)c1` (stereo not shown) [compound 132, 3-{5-[({[4-methyl-2-(piperidin-1-yl)phenyl](pyrimidin-2-yl)methyl}carbamoyl)methyl]-1H-indol-3-yl}propanoic acid] showed a negative-log IC50 (pIC50) of more than 6.00.

Take `Cc1ccc(C(CC(C)C)NC(=O)Cc2ccc3[nH]cc(CCC(=O)O)c3c2)c(N(C)C)c1` (stereo not shown) [compound 134, 3-{5-[({1-[2-(dimethylamino)-4-methylphenyl]-3-methylbutyl}carbamoyl)methyl]-1H-indol-3-yl}propanoic acid]: the pIC50 is more than 6.00.

As to `Cc1cnc(C(NC(=O)Cc2ccc3[nH]cc(CCC(=O)O)c3c2)c2ccccc2N2CCCCC2)s1` (stereo not shown) [compound 154, 3-[5-({[(5-methyl-1,3-thiazol-2-yl)[2-(piperidin-1-yl)phenyl]methyl]carbamoyl}methyl)-1H-indol-3-yl]propanoic acid], the pIC50 is more than 6.00.

Take `Cc1ncc(C(NC(=O)Cc2ccc3[nH]cc(CCC(=O)O)c3c2)c2ccccc2N2CCCCC2)s1` (stereo not shown) [compound 156, 3-[5-({[(2-methyl-1,3-thiazol-5-yl)[2-(piperidin-1-yl)phenyl]methyl]carbamoyl}methyl)-1H-indol-3-yl]propanoic acid]: the negative logarithm of the IC50 (pIC50) is 5.00 to 6.00.

`Cc1ccc(C(NC(=O)Cc2ccc3[nH]cc(CCC(=O)O)c3c2)C2CC2)c2ccccc12` (stereo not shown) [compound 164, 3-[5-({[cyclopropyl(4-methylnaphthalen-1-yl)methyl]carbamoyl}methyl)-1H-indol-3-yl]propanoic acid] had a pIC50 of more than 6.00.

The compound `O=C(O)Cc1c[nH]c2ccc(CC(=O)NC(c3ccccc3)c3cc(Cl)ccc3N3CCCCC3)cc12` (stereo not shown) [compound 166, 2-{5-[({[5-chloro-2-(piperidin-1-yl)phenyl](phenyl)methyl}carbamoyl)methyl]-1H-indol-3-yl}acetic acid] showed a pIC50 of 5.00 to 6.00.

In turn, `O=C(O)CCc1c[nH]c2ccc(CC(=O)NC(c3ccccc3)c3cccc4cc[nH]c34)cc12` (stereo not shown) [compound 168, 3-[5-({[1H-indol-7-yl(phenyl)methyl]carbamoyl}methyl)-1H-indol-3-yl]propanoic acid] had a pIC50 of 5.00 to 6.00.

Consider `Cn1ccc2cccc(C(NC(=O)Cc3ccc4[nH]cc(CCC(=O)O)c4c3)c3ccccc3)c21` (stereo not shown) [compound 170, 3-[5-({[(1-methyl-1H-indol-7-yl)(phenyl)methyl]carbamoyl}methyl)-1H-indol-3-yl]propanoic acid], for which the negative logarithm of the IC50 (pIC50) is more than 6.00.

As for `Cc1cccc(CC(NC(=O)Cc2ccc3[nH]cc(CCC(=O)O)c3c2)c2ccccc2N2CCCCC2)c1` (stereo not shown) [compound 176, 3-[5-({[2-(3-methylphenyl)-1-[2-(piperidin-1-yl)phenyl]ethyl]carbamoyl}methyl)-1H-indol-3-yl]propanoic acid], the negative logarithm of the IC50 (pIC50) is 5.00 to 6.00.

For the compound `CC(C)CC(NC(=O)Nc1cnc2[nH]cc(CCC(=O)O)c2c1)c1ccccc1N1CCCCC1` (stereo not shown) [compound 178, 3-{5-[({3-methyl-1-[2-(piperidin-1-yl)phenyl]butyl}carbamoyl)amino]-1H-pyrrolo[2,3-b]pyridin-3-yl}propanoic acid], the pIC50 was 4.52 to 5.00.

`O=C(O)CCc1c[nH]c2ccc(CC(=O)NC(c3ccccc3)c3ccccc3N3CCC(F)(F)CC3)cc12` (stereo not shown) [compound 180, 3-{5-[({[2-(4,4-difluoropiperidin-1-yl)phenyl](phenyl)methyl}carbamoyl)methyl]-1H-indol-3-yl}propanoic acid] gave a pIC50 of 5.00 to 6.00.

As to `CC(C)CC(NC(=O)Cc1ccc2[nH]cc(CCC(=O)O)c2c1)c1ccc(Br)cc1N1CCCC1` (stereo not shown) [compound 182, 3-{5-[({1-[4-bromo-2-(pyrrolidin-1-yl)phenyl]-3-methylbutyl}carbamoyl)methyl]-1H-indol-3-yl}propanoic acid], the pIC50 is more than 6.00.

On to `Cc1ccc(C(NC(=O)Cc2ccc3[nH]cc(CCC(=O)O)c3c2)c2ccccc2)c(N)c1` (stereo not shown) [compound 184, 3-[5-({[(2-amino-4-methylphenyl)(phenyl)methyl]carbamoyl}methyl)-1H-indol-3-yl]propanoic acid], for which the negative-log IC50 (pIC50) was 5.00 to 6.00.

In turn, `O=C(O)CCc1c[nH]c2ccc(CC(=O)NC(CC3CCOCC3)c3ccccc3N3CCCCC3)cc12` (stereo not shown) [compound 190, 3-[5-({[2-(oxan-4-yl)-1-[2-(piperidin-1-yl)phenyl]ethyl]carbamoyl}methyl)-1H-indol-3-yl]propanoic acid] had a pIC50 of more than 6.00.

Take `CC(C)CC(NC(=O)Cc1ccc2[nH]cc(CC(=O)O)c2c1)c1ccccc1N1CCCCC1` (stereo not shown) [compound 194, 2-{5-[({3-methyl-1-[2-(piperidin-1-yl)phenyl]butyl}carbamoyl)methyl]-1H-indol-3-yl}acetic acid]: the pIC50 is 5.00 to 6.00.

As for `O=C(O)CCc1c[nH]c2ccc(CC(=O)NC(c3ccccc3)c3ccccc3N3CCOCC3)cc12` (stereo not shown) [compound 196, 3-{5-[({[2-(morpholin-4-yl)phenyl](phenyl)methyl}carbamoyl)methyl]-1H-indol-3-yl}propanoic acid], the pIC50 was 5.00 to 6.00.

Consider `CNc1cc(C)ccc1C(NC(=O)Cc1ccc2[nH]cc(CCC(=O)O)c2c1)c1ccccc1` (stereo not shown) [compound 204, 3-{5-[({[4-methyl-2-(methylamino)phenyl](phenyl)methyl}carbamoyl)methyl]-1H-indol-3-yl}propanoic acid], for which the negative-log IC50 (pIC50) was more than 6.00.

In turn, `O=C(Cc1ccc2[nH]cc(C(=O)O)c2c1)NC(c1ccccc1)c1ccccc1N1CCCCC1` (stereo not shown) [compound 206, 1-(2-{[2-(3-carboxy-1H-indol-5-yl)acetamido](phenyl)methyl}phenyl)piperidin-1-ium chloride] showed a pIC50 of 5.00 to 6.00.

Turning to `Cc1ccc(C(NC(=O)Cc2ccc3[nH]cc(C(=O)O)c3c2)c2ccccc2)c(Br)c1` (stereo not shown) [compound 207, 5-({[(2-bromo-4-methylphenyl)(phenyl)methyl]carbamoyl}methyl)-1H-indole-3-carboxylic acid], the negative logarithm of the IC50 (pIC50) was 5.00 to 6.00.

Turning to `O=C(O)CCC(=O)c1c[nH]c2ccc(CC(=O)NC(c3ccccc3)c3ccccc3N3CCCCC3)cc12` (stereo not shown) [compound 213, 4-oxo-4-{5-[({phenyl[2-(piperidin-1-yl)phenyl]methyl}carbamoyl)methyl]-1H-indol-3-yl}butanoic acid], the negative-log IC50 (pIC50) is more than 6.00.

`O=C(O)CCCC(=O)c1c[nH]c2ccc(CC(=O)NC(c3ccccc3)c3ccccc3N3CCCCC3)cc12` (stereo not shown) [compound 215, 5-oxo-5-{5-[({phenyl[2-(piperidin-1-yl)phenyl]methyl}carbamoyl)methyl]-1H-indol-3-yl}pentanoic acid]: the pIC50 is more than 6.00.

Consider `Cc1ccc(C(NC(=O)Cc2ccc3[nH]cc(CCC(=O)O)c3c2)c2ccccc2)c2[nH]ccc12` (stereo not shown) [compound 229, 3-[5-({[(4-methyl-1H-indol-7-yl)(phenyl)methyl]carbamoyl}methyl)-1H-indol-3-yl]propanoic acid], for which the pIC50 was 5.00 to 6.00.

The pIC50 is the negative decadic logarithm of the IC50, by convention in mol/L. A lower pIC50 goes with a large IC50.
